# Article PMC10762078, “Role of UPF1-LIN28A interaction during early differentiation of pluripotent stem cells” (Nature Communications, 2024)
# Ends that are not written are not given here.
# Molecular target: T1, His-LIN28A (Homo sapiens, UniProt Q9H9Z2)
# T1 construct: purchased LS-bio LS-G637
# T1 sequence (Q9H9Z2 1-209): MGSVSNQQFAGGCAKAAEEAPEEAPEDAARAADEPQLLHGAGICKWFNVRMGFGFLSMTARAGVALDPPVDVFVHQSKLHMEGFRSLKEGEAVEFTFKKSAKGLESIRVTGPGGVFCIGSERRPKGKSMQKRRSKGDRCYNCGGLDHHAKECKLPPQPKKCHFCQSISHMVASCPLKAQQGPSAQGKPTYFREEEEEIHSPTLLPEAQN
# Experiment: SPR analyte-ligand binding screening of eight peptides (P1-P8)
# Conditions: SPR screening at 15 μM, 3 min association, 6 min dissociation
# Procedure: For ligand immobilisation, the nitrilotriacetic acid (NTA) surface gold sensor chip (icluebio) was activated with 5 mM NiCl2 (Xantec) at a flow rate of 30 μL/min, following equalisation with 1× HBS-T buffer. His-LIN28A (LS-bio, LS-G637) was used as a ligand protein and was applied to a sensor chip at a flow rate of 10 μL/min for 40 min after dilution in 1× HEPES-buffered saline (HBS-T) buffer at a 1/20 ratio. Approximately 1000 resonance units (RU) were bonded to the sensor chip after ligand immobilisation. RU was measured using iMSPR-ProX (icluebio). An indigenous NTA sensor chip was used as a reference channel.
# Analyte-ligand binding screening was performed by tethering the ligand and reference channels in the connected mode. […] After equalisation with 1× HBS-T buffer, the sensor chip was treated with each peptide for 3 min and then for 6 min with 1× HBS-T buffer for peptide dissociation.
sequence,measurement,value
KKKWCRKKKSSADEKRYRALKRTAERELLMNA [P8],binding affinity vs others,significantly
